# Active and inactive are the calls of the source. The calls are words filed in the database; no cut-off is given here.
# Key:
# [1] = molecular target: T1, Histone deacetylase 8 (Schistosoma mansoni) (UniProt A5H660); test: Inhibition of Schistosoma mansoni KDAC8 at 30 uM using (FAM)-labeled peptide as substrate after 60 mins by microfluidic assay
# T1 sequence (whole entry): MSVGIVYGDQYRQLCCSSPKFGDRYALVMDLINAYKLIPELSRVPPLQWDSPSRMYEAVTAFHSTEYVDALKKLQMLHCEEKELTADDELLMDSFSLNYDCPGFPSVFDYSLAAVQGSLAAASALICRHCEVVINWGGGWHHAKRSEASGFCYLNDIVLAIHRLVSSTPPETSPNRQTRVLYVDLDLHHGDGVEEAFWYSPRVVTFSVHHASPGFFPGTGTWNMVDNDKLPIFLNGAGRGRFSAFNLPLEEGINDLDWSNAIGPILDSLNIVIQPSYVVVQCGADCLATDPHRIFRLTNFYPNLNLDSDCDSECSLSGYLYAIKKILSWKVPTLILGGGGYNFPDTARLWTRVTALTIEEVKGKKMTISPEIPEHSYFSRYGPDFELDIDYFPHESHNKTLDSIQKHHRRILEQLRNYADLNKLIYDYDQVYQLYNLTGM
# Histone deacetylase 8 = molecular target: T2, Histone deacetylase 8 (Schistosoma mansoni, UniProt A5H660); test: Inhibition of Schistosoma mansoni KDAC8 using (FAM)-labeled peptide as substrate after 60 mins by microfluidic assay
# T2 sequence (A5H660 whole entry): T1 sequence (whole entry)
SMILES,inhibition [1],IC50 (Histone deacetylase 8; read-out: IC50) [µM],IC50 (Histone deacetylase 8; read-out: pIC50 (converted)) [µM],pIC50 (Histone deacetylase 8)
CSCC[C@@H]1N=C(c2ccccc2)c2ccccc2N(CCCCC(=O)NO)C1=O,19.3%,> 30,,
C[C@@H](OCc1ccccc1)[C@@H]1N=C(c2ccccc2)c2ccccc2N(CCCCC(=O)NO)C1=O,20.5%,> 30,,
COC(=O)[C@H](Cc1ccccc1)NC(=O)CCCCCCCCC(=O)NO,,,0.794,
O=C(CCCCN1C(=O)[C@@H](CS)N=C(c2ccccc2)c2ccccc21)NO,57%,20.9,,
NC(=O)CC[C@@H]1N=C(c2ccccc2)c2ccccc2N(CCCCC(=O)NO)C1=O,11.6%,> 30,,
O=C(CCCCN1C(=O)CN=C(c2ccccc2)c2ccccc21)NO,39.7%,> 30,,
COC(=O)CCCCN1C(=O)[C@H](CC(=O)OC(C)(C)C)N=C(c2ccccc2)c2ccccc21,0%,> 30,,
CC(C)C[C@@H]1N=C(c2ccccc2)c2ccccc2N(CCCCC(=O)O)C1=O,0%,> 30,,
COC(=O)CCCCN1C(=O)[C@@H](CSC(C)(C)C)N=C(c2ccccc2)c2ccccc21,0%,> 30,,
O=C(CCCCN1C(=O)[C@H](Cc2cnc[nH]2)N=C(c2ccccc2)c2ccccc21)NO,4.11%,> 30,,
N[C@H](Cc1ccc(Cl)cc1Cl)C(=O)N1Cc2ccccc2C1,,29.1,,
Nc1ccccc1NC(=O)c1ccc(CNC(=O)OCc2cccnc2)cc1 [ENTINOSTAT],inactive,> 30,,
CC(C)(C)OC(=O)CC[C@@H]1N=C(c2ccccc2)c2ccccc2N(CCCCC(=O)NO)C1=O,24.9%,> 30,,
NCCCC[C@@H]1N=C(c2ccccc2)c2ccccc2N(CCCCC(=O)NO)C1=O,4.32%,> 30,,
Nc1ccccc1NC(=O)c1ccc(-c2cn(CCc3ccsc3)nn2)cc1,inactive,> 30,,
O=C(CCCCN1C(=O)[C@H](Cc2cc3ccccc3[nH]2)N=C(c2ccccc2)c2ccccc21)NO,19.7%,> 30,,
CC(C)C[C@@H]1N=C(c2ccccc2)c2ccccc2N(CCCCC(=O)NO)C1=O,23.1%,> 30,,
O=C(CCCCCN1C(=O)c2cccc3cccc(c23)C1=O)NO,,1.77,,
COC(=O)CCCCN1C(=O)[C@H](CC(C)C)N=C(c2ccccc2)c2ccccc21,0%,> 30,,
CN(C)c1ccc(C(=O)NCCCCCCC(=O)NO)cc1,,,3.16,
Cc1c(C)c(S(=O)(=O)NC(=N)NCCC[C@@H]2N=C(c3ccccc3)c3ccccc3N(CCCCC(=O)NO)C2=O)c(C)c2c1OC(C)(C)C2,0%,> 30,,
C[C@H](OCc1ccccc1)[C@@H]1N=C(c2ccccc2)c2ccccc2N(CCCCC(=O)O)C1=O,0%,> 30,,
O=C(NO)C1CCN(S(=O)(=O)c2ccc3c(c2)CCC3)CC1,,,3.02,
CC(C)(C)SC[C@H]1N=C(c2ccccc2)c2ccccc2N(CCCCC(=O)O)C1=O,0%,> 30,,
CC(C)(C)OC[C@@H]1N=C(c2ccccc2)c2ccccc2N(CCCCC(=O)NO)C1=O,15.7%,> 30,,

SMILES,inhibition [1],IC50 (Histone deacetylase 8; read-out: IC50) [µM],IC50 (Histone deacetylase 8; read-out: pIC50 (converted)) [µM],pIC50 (Histone deacetylase 8)
CC(C)(C)Oc1ccc(C[C@@H]2N=C(c3ccccc3)c3ccccc3N(CCCCC(=O)NO)C2=O)cc1,74%,10.3,,
CC(C)(C)OC[C@@H]1N=C(c2ccccc2)c2ccccc2NC1=O,0%,> 30,,
CC(C)(C)OC(=O)n1cc(C[C@@H]2N=C(c3ccccc3)c3ccccc3NC2=O)c2ccccc21,11.9%,> 30,,
COC(=O)CCCCN1C(=O)[C@H](Cc2ccc(OC(C)(C)C)cc2)N=C(c2ccccc2)c2ccccc21,0%,> 30,,
CC(C)[C@@H]1NC(=O)[C@H]2CCCN2C(=O)[C@@H]2CCCN2C(=O)C[C@H](C(=O)NCCCC(=O)NO)NC1=O,< 26%,> 30,,
O=C(CCCCN1C(=O)[C@H](CC(=O)NO)N=C(c2ccccc2)c2ccccc21)NO,5.21%,> 30,,
O=C(CCCCCC(=O)N/N=C/c1ccc(-c2ccccc2)cc1)NO,,,0.891,
COC(=O)CCCCN1C(=O)[C@H](CCC(=O)OC(C)(C)C)N=C(c2ccccc2)c2ccccc21,0%,> 30,,
O=C(C[C@@H]1N=C(c2ccccc2)c2ccccc2NC1=O)NC(c1ccccc1)(c1ccccc1)c1ccccc1,0%,> 30,,
CC(C)[C@@H]1N=C(c2ccccc2)c2ccccc2NC1=O,0%,> 30,,
C[C@@H](O)[C@@H]1N=C(c2ccccc2)c2ccccc2N(CCCCC(=O)NO)C1=O,0.91%,> 30,,
CSCC[C@@H]1N=C(c2ccccc2)c2ccccc2NC1=O,0%,> 30,,
COC(=O)CCCCN1C(=O)[C@H](Cc2cncn2C(c2ccccc2)(c2ccccc2)c2ccccc2)N=C(c2ccccc2)c2ccccc21,2.5%,> 30,,
CC(C)(C)SC[C@H]1N=C(c2ccccc2)c2ccccc2N(CCCCC(=O)NO)C1=O,18.5%,> 30,,
CC(C)[C@@H]1NC(=O)[C@@H]2CCCN2C(=O)[C@@H]2CCCN2C(=O)C[C@@H](C(=O)NCCCC(=O)NO)NC1=O,32%,> 30,,
Cc1[nH]c2ccccc2c1CCNCc1ccc(/C=C/C(=O)NO)cc1 [PANOBINOSTAT],,0.45,,
O=C(CCCCCCC(=O)Nc1cccc(C(=O)O)c1)NO,,,1.91,
COc1ccc(Cn2ccc3ccc(C(=O)NO)cc32)cc1,,,,1.03 to 6.36
CC(C)[C@@H]1N=C(c2ccccc2)c2ccccc2N(CCCCC(=O)NO)C1=O,20.6%,> 30,,
CC(/C=C/C(=O)NO)=C\[C@@H](C)C(=O)c1ccc(N(C)C)cc1 [TRICHOSTATIN],,3.62,,
O=C(CCCNC(=O)CC[C@@H]1N=C(c2ccccc2)c2ccccc2NC1=O)NO,81.7%,6.53,,
O=C(O)CC[C@@H]1N=C(c2ccccc2)c2ccccc2N(CCCCC(=O)NO)C1=O,13.4%,> 30,,
Cc1c(C)c(S(=O)(=O)NC(=N)NCCC[C@@H]2N=C(c3ccccc3)c3ccccc3N(CCCCC(=O)O)C2=O)c(C)c2c1OC(C)(C)C2,0%,> 30,,
CC(C)(C)OC(=O)n1c(C[C@@H]2N=C(c3ccccc3)c3ccccc3N(CCCCC(=O)O)C2=O)cc2ccccc21,0%,> 30,,
O=C1CN=C(c2ccccc2)c2ccccc2N1 [RO-052921],9.5%,> 30,,

SMILES,inhibition [1],IC50 (Histone deacetylase 8; read-out: IC50) [µM],IC50 (Histone deacetylase 8; read-out: pIC50 (converted)) [µM],pIC50 (Histone deacetylase 8)
O=C(C[C@H]1N=C(c2ccccc2)c2ccccc2NC1=O)NO,0%,> 30,,
O=C(O)CCCCN1C(=O)[C@H](CCC(=O)O)N=C(c2ccccc2)c2ccccc21,0%,> 30,,
CC[C@H](C)[C@@H]1N=C(c2ccccc2)c2ccccc2N(CCCCC(=O)O)C1=O,0%,> 30,,
O=C1Nc2ccccc2C(c2ccccc2)=N[C@H]1Cc1ccccc1,0%,> 30,,
COC(=O)CCCCN1C(=O)[C@H](CCC(=O)NC(c2ccccc2)(c2ccccc2)c2ccccc2)N=C(c2ccccc2)c2ccccc21,0%,> 30,,
O=C(CS)NCCCCCC(=O)Nc1ccccc1,,,50.1,
C[C@@H]1N=C(c2ccccc2)c2ccccc2N(CCCCC(=O)O)C1=O,0%,> 30,,
CC(C)(C)OC(=O)CC[C@H]1N=C(c2ccccc2)c2ccccc2NC1=O,12.3%,> 30,,
CSCC[C@@H]1N=C(c2ccccc2)c2ccccc2N(CCCCC(=O)O)C1=O,0%,> 30,,
"CC(OCc1ccccc1)[C@@H]1N=C(c2ccccc2)c2ccccc2NC1=O (single isomer, unassigned)",0%,> 30,,
CN(C)Nc1cccc(C(=O)NO)c1,,,1.58,
O=C(O)CCCCN1C(=O)CN=C(c2ccccc2)c2ccccc21,0%,> 30,,
COC(=O)CCCCN1C(=O)[C@H](CCSC)N=C(c2ccccc2)c2ccccc21,0%,> 30,,
O=C(O)CC[C@@H]1N=C(c2ccccc2)c2ccccc2NC1=O,0%,> 30,,
O=C(CCCCN1C(=O)[C@H](CC(=O)NC(c2ccccc2)(c2ccccc2)c2ccccc2)N=C(c2ccccc2)c2ccccc21)NO,52.3%,26.3,,
C[C@H]1Sc2ccc(C(=O)NO)cc2NC1=O,,,1.48,
O=C(NO)c1sc2ccccc2c1Cl,,,4.37,
Cc1ccc(CN(Cc2ccc(C(=O)NO)cc2)S(=O)(=O)c2ccc(F)c(C)c2)cc1,,,5.62,
Cn1cc(C2=C(c3cn(CCCCCC(=O)NO)c4ccccc34)C(=O)NC2=O)c2ccccc21,,,1.41,
CN1CCc2c(c3ccccc3n2Cc2ccc(C(=O)NO)cc2)C1 [TUBASTATIN A],,,1.48,
CCCCCC(=O)NO,,,2.51,
CCC(=O)CCCCC[C@@H]1NC(=O)C2CCCCN2C(=O)[C@H](C(C)CC)NC(=O)[C@H](Cc2cn(OC)c3ccccc23)NC1=O (stereo partly drawn),,28.8,,
O=C(NO)c1cccc(NN(Cc2ccccc2)Cc2ccccc2)c1,,,9.33,
CN(C)c1ccc(C(=O)NCc2ccc(C(=O)NO)cc2)cc1,,,2.88,
CN(C)c1ccc(C(=O)NCC2CCC(C(=O)NO)CC2)cc1 (stereo not drawn),,,12,

# From ChEMBL document CHEMBL4014283, “Structural insights of SmKDAC8 inhibitors: Targeting Schistosoma epigenetics through a combined structure-based 3D QSAR, in vitro and synthesis strategy” (Bioorg Med Chem, 2017)
